Data as given in PubChem BioAssay AID256 (DTP/NCI, 2004).
“And” between values parts separate entries of the source, which are not always exact repeats. Equal entries are not always repeated. Inconclusive results and toxic doses are left out. How the source made its calls: active means survival T/C of 150% or more; inactive means T/C below 125% in these data.

Tested on: CD2F1 mice, L1210 leukemia ip, survival T/C
Assay: NCI In Vivo Anticancer Drug Screen. Data for tumor model L1210 Leukemia (intraperitoneal) in CD2F1 (CDF1) mice
Conditions: endpoint: mean survival time, higher = longer survival
Outline: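 Vehicle-treated tumor-bearing mice served as controls (C) for compound-treated mice (T). Reported figure is T divided by C.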

[1] = dose: 50.0 mg/kg/injection, schedule: Q01DX009 (ip), vehicle: saline with Tween-80
[2] = dose: 100.0 mg/kg/injection, schedule: Q01DX009 (ip), vehicle: saline with Tween-80
[3] = dose: 200.0 mg/kg/injection, schedule: Q01DX009 (ip), vehicle: saline with Tween-80
[4] = dose: 100.0 mg/kg/injection, schedule: Q04DX003 (ip), vehicle: saline with Tween-80
[5] = dose: 200.0 mg/kg/injection, schedule: Q04DX003 (ip), vehicle: saline with Tween-80
[6] = dose: 400.0 mg/kg/injection, schedule: Q04DX003 (ip), vehicle: saline with Tween-80
[7] = dose: 100.0 mg/kg/injection, schedule: Q01DX001 (ip), vehicle: saline with Tween-80
[8] = dose: 200.0 mg/kg/injection, schedule: Q01DX001 (ip), vehicle: saline with Tween-80
[9] = dose: 400.0 mg/kg/injection, schedule: Q01DX001 (ip), vehicle: saline with Tween-80
[10] = dose: 400.0 mg/kg/injection, schedule: Q01DX009 (ip), vehicle: saline with Tween-80

Measured: T/C

O=c1ccn(C2OC(CO)C(O)C2O)c(=O)[nH]1 (centres undefined)
inactive: dose: 12.5 mg/kg/injection, schedule: Q01DX005 (ip), vehicle: Klucel (hydroxypropylcellulose) (HPC) 103 % of control | dose: 25.0 mg/kg/injection, schedule: Q01DX005 (ip), vehicle: Klucel (hydroxypropylcellulose) (HPC) 101 % of control | dose: 50.0 mg/kg/injection, schedule: Q01DX005 (ip), vehicle: Klucel (hydroxypropylcellulose) (HPC) 101 % of control | dose: 100.0 mg/kg/injection, schedule: Q01DX005 (ip), vehicle: Klucel (hydroxypropylcellulose) (HPC) 110 % of control | dose: 200.0 mg/kg/injection, schedule: Q01DX005 (ip), vehicle: Klucel (hydroxypropylcellulose) (HPC) 105 % of control

NC(=S)c1cc(C(N)=S)[nH]n1
inactive: dose: 6.25 mg/kg/injection, schedule: Q01DX005 (ip), vehicle: other 101 % of control | dose: 12.5 mg/kg/injection, schedule: Q01DX005 (ip), vehicle: other 97 % of control | dose: 25.0 mg/kg/injection, schedule: Q01DX005 (ip), vehicle: other 93 % of control | dose: 50.0 mg/kg/injection, schedule: Q01DX005 (ip), vehicle: other 95 % of control

Cc1ccc(NC(=O)Nc2cccc(C(=O)O)c2)cc1[N+](=O)[O-]
inactive: [1] 94 % of control | [2] 98 % of control | [3] 98 % of control

CC(=O)c1ccc(N=NN(C)C)cc1
inactive: dose: 2.37 mg/kg/injection, schedule: Q01DX009 (ip), vehicle: Klucel (hydroxypropylcellulose) (HPC) 96 % of control | dose: 9.5 mg/kg/injection, schedule: Q01DX009 (ip), vehicle: Klucel (hydroxypropylcellulose) (HPC) 96 % of control | dose: 19.0 mg/kg/injection, schedule: Q01DX009 (ip), vehicle: Klucel (hydroxypropylcellulose) (HPC) 110 % of control | dose: 58.0 mg/kg/injection, schedule: Q01DX009 (ip), vehicle: Klucel (hydroxypropylcellulose) (HPC) 101 % of control

COc1ccc(Cc2ccc(O)cc2)cc1
inactive: dose: 100.0 mg/kg/injection, schedule: Q01DX009 (ip), vehicle: other 101 % of control | dose: 200.0 mg/kg/injection, schedule: Q01DX009 (ip), vehicle: other 101 % of control | dose: 400.0 mg/kg/injection, schedule: Q01DX009 (ip), vehicle: other 104 % of control

COc1cc(C=O)ccc1OCc1ccccc1
inactive: [4] 106 % of control | [5] 95 % of control | [6] 113 % of control

CC(=O)C(=O)Sc1ccccc1
inactive: dose: 12.5 mg/kg/injection, schedule: Q04DX002 (ip), vehicle: Klucel (hydroxypropylcellulose) (HPC) 94 % of control | dose: 25.0 mg/kg/injection, schedule: Q04DX002 (ip), vehicle: Klucel (hydroxypropylcellulose) (HPC) 105 % of control | dose: 50.0 mg/kg/injection, schedule: Q04DX002 (ip), vehicle: Klucel (hydroxypropylcellulose) (HPC) 90 % of control

CCCOC(=O)c1cc([N+](=O)[O-])cc([N+](=O)[O-])c1Sc1ncnc2nc[nH]c12
inactive: dose: 0.63 mg/kg/injection, schedule: Q01DX005 (ip), vehicle: other 102 % of control | dose: 1.25 mg/kg/injection, schedule: Q01DX005 (ip), vehicle: other 105 % of control | dose: 2.5 mg/kg/injection, schedule: Q01DX005 (ip), vehicle: other 102 % of control | dose: 5.0 mg/kg/injection, schedule: Q01DX005 (ip), vehicle: other 105 % of control | dose: 10.0 mg/kg/injection, schedule: Q01DX005 (ip), vehicle: other 105 % of control | dose: 20.0 mg/kg/injection, schedule: Q01DX005 (ip), vehicle: other 106 % of control | dose: 40.0 mg/kg/injection, schedule: Q01DX005 (ip), vehicle: other 113 % of control

CCOC(=O)c1ccc(OC(=O)Nc2cc(C)ccc2C)cc1
inactive: [1] 100 % of control | [7] 103 % of control | dose: 100.0 mg/kg/injection, schedule: Q04DX002 (ip), vehicle: saline with Tween-80 98 % of control and 101 % of control | [4] 97 % of control | [8] 100 % of control | dose: 200.0 mg/kg/injection, schedule: Q04DX002 (ip), vehicle: saline with Tween-80 113 % of control and 109 % of control | [5] 92 % of control | [9] 102 % of control | dose: 400.0 mg/kg/injection, schedule: Q04DX002 (ip), vehicle: saline with Tween-80 114 % of control and 102 % of control | [6] 94 % of control

CC12CCC(=O)CC1CCC1C2CCC2(C)C(C(=O)O)CCC12 (centres undefined)
inactive: [7] 96 % of control | [8] 102 % of control | [9] 96 % of control

COc1ccc(OC)c(CCc2cc(OC)ccc2OC)c1
inactive: dose: 12.5 mg/kg/injection, schedule: Q04DX003 (ip), vehicle: other 97 % of control | dose: 25.0 mg/kg/injection, schedule: Q04DX003 (ip), vehicle: other 86 % of control | dose: 50.0 mg/kg/injection, schedule: Q04DX003 (ip), vehicle: other 97 % of control

CN(C)CCCN=Cc1cc([N+](=O)[O-])ccc1O.CN(C)CCCN=Cc1cc([N+](=O)[O-])ccc1O.[Ni+2]
inactive: dose: 6.25 mg/kg/injection, schedule: Q04DX002 (ip), vehicle: saline with Tween-80 91 % of control | dose: 12.5 mg/kg/injection, schedule: Q04DX002 (ip), vehicle: saline with Tween-80 91 % of control | dose: 50.0 mg/kg/injection, schedule: Q04DX002 (ip), vehicle: saline with Tween-80 93 % of control

COC(=O)C12C=CC(C1)n1c(=O)n(-c3ccccc3)c(=O)n12 (centres undefined)
inactive: [2] 98 % of control | [3] 104 % of control | [10] 96 % of control

COc1cc(Cl)ccc1NC(=O)OCCOc1c(C(C)C)cccc1C(C)C
inactive: [1] 101 % of control | [2] 101 % of control | [3] 89 % of control

O=C(O)CCC1(CCC(=O)O)OCCO1.[Ag]
inactive: dose: 9.5 mg/kg/injection, schedule: Q01DX009 (ip), vehicle: saline sonified 92 % of control | dose: 18.75 mg/kg/injection, schedule: Q01DX009 (ip), vehicle: saline with Tween-80 92 % of control | dose: 19.0 mg/kg/injection, schedule: Q01DX009 (ip), vehicle: saline sonified 95 % of control | dose: 37.5 mg/kg/injection, schedule: Q01DX009 (ip), vehicle: saline with Tween-80 92 % of control | dose: 38.0 mg/kg/injection, schedule: Q01DX009 (ip), vehicle: saline sonified 95 % of control

COC(=O)C1=CCC=CC1
inactive: [2] 104 % of control | [3] 104 % of control

COC(=O)C1C2CCC(C2)C1C (centres undefined)
inactive: dose: 25.0 mg/kg/injection, schedule: Q01DX009 (ip), vehicle: saline with Tween-80 93 % of control | [1] 104 % of control | [2] 98 % of control | [4] 90 % of control

O=Nc1c(O)sc2ccccc12
inactive: [7] 110 % of control | [2] 97 % of control | [8] 105 % of control | [3] 100 % of control | [9] 95 % of control | [10] 94 % of control
